# From article PMC6943441, “The Meta-Position of Phe^4 in Leu-Enkephalin Regulates Potency, Selectivity, Functional Activity, and Signaling Bias at the Delta and Mu Opioid Receptors” (Molecules, 2019)
# Where two headings read alike, the source gives them in different places. Square brackets hold non-standard residues; d marks the D form. Peptide text beside a SMILES is read from it. 4Pal = N[C@@H](Cc1ccncc1)C(=O)O
# Tests used:
# [1] = target: T1, δOR (Homo sapiens, UniProt P41143); experiment: Competition radioligand binding, [3H]DPDPE
# Method: (§1) Next, 100 µL of membrane suspension containing 7 µg protein was added to the agonist wells and incubated for 90 min at room temperature. The reaction mixture was then filtered over a GF-B filter plate (Perkin Elmer) followed by four quick washes with ice-cold 50 mM Tris HCl. The plate was dried overnight, after which 50 µL scintillation fluid (Ultimagold uLLT) was added and radioactivity was counted on a Packard TopCount NXT scintillation counter. All working solutions were prepared in a radioligand assay buffer containing 50 mM Tris HCl, 10 mM MgCl2, and 1 mM ethylenediaminetetraacetic acid at pH 7.4.
# [2] = target: T2, µOR (Homo sapiens, UniProt P35372); experiment: Competition radioligand binding, [3H]DAMGO
# Method: as §1
# [3] = target: T1, δOR; experiment: PathHunter β-arrestin 2 recruitment assay in CHO cells
# Method: (§2) In brief, for cAMP inhibition assays HEK 293 (Life Technologies, Grand Island, NY, USA) cells were transiently transfected in a 1:3 ratio with FLAG-mouse δOR, or HA-mouse µOR and pGloSensor22F-cAMP plasmids (Promega, Madison, WI, USA) using Xtremegene9 (Sigma). Two days post-transfection cells (20,000 cells/well, 7.5 µL) were seeded in low volume Greiner 384-well plates (#82051-458, VWR, Batavia, IL, USA) and were incubated with Glosensor reagent (Promega, 7.5 µL, 2% final concentration) for 90 min at room temperature. […] For β-arrestin recruitment assays, CHO-human µOR PathHunter β-arrestin 2 cells or CHO-human δOR PathHunter β-arrestin 2 cells (DiscoverX, Fremont, CA, USA) were plated (2,500 cells/well, 10 µL) one day prior to stimulation with 2.5 µL drug solution for 90 min at 37 °C/5% CO2, after which cells were incubated with 6 µL cell PathHunter assay buffer (DiscoverX) for 60 min at room temperature as per the manufacturer’s protocol. Luminescence for each of these assays was measured using a FlexStation3 plate reader (Molecular Devices, Sunnyvale, CA, USA).
# (§3) All data are presented as means ± standard error of the mean, and analysis was performed using GraphPad Prism 8 software (GraphPad Software, La Jolla, CA). For in vitro assays, nonlinear regression was conducted to determine pIC50 (cAMP) or pEC50 (β-arrestin 2 recruitment). […] The averages of each independent run were counted as a single experiment and combined to provide a composite curve in favor of providing a ‘representative’ curve. In each experimental run, a positive control/reference compound was utilized to allow the data to be normalized and to calculate the log bias value. A minimum of three independent values were obtained for each compound in each of the cellular assays.
# [4] = target: T3, FLAG-mouse δOR (Mus musculus, UniProt P32300); experiment: cAMP GloSensor inhibition assay in HEK 293 cells; type: cell-based
# T3 construct: FLAG; expressed in transfected cells; host or cells: HEK 293
# Method: as §2, §3
# [5] = Rat plasma stability
# Method: Peptides were synthesized using an Aapptec Focus XC automated peptide synthesizer coupled with a heating system using a solid phase peptide synthesis protocol using Fmoc chemistry. Preparative RP-HPLC was performed using an appropriate column and solvent system (described below) and final purity of peptides was determined by UV area % from UPLC analysis. Peptides were purified by Teledyne ISCO EZ Prep system on RediSep® C18 Prep column (30 × 250 mm, 100 Å). […] Plasma stability was also assessed using the above UPLC column and solvent gradient program using a Waters H class Plus Acquity UPLC system coupled with a QDa detector using protocol B.
# Sprague Dawley rat plasma containing K2-ethylenediaminetetraacetic acid (Innovative Research, MI, USA) was transferred into 300 µL aliquots and stored at −20 °C until use. […] After adding analog, an aliquot of the mixture was removed at each indicated time point (0, 5, 10, 15, 20, 30, 60, 120, 240 min) and immediately quenched with 100 μL of a methanol solution containing 20 μM Fmoc-Leu-OH as an internal standard. […] Then, the filtrate was transferred into vials and a 5 μL sample of the resulting solution was analyzed on an UPLC system coupled with a QDa detector. […] Determination of half-life (t1/2) was carried out by using the GraphPad Prism one-phase decay method.
# [6] = target: T2, µOR; experiment: cell-based; type: cell-based; conditions: CHO PathHunter; read-out: β-Arrestin 2 EC50 (nM) µOR
# Method: as §2, §3
# [7] = target: T4, HA-mouse µOR (Mus musculus, UniProt P42866); experiment: cAMP GloSensor inhibition assay in HEK 293 cells; type: cell-based; conditions: HEK 293, forskolin 30 µM; read-out: cAMP IC50 (nM) µOR
# T4 construct: HA; expressed in transfected cells; host or cells: HEK 293
# Method: as §2, §3
# [8] = target: T1, δOR; conditions: at best; cited from earlier work
# [9] = target: T1, δOR; conditions: literature value; cited from earlier work
# [10] = target: T2, µOR; conditions: BRET (β-arrestin 2) and EPAC (cAMP) assays; footnote prints reference 26; cited from earlier work
# [11] = target: T1, δOR; conditions: cited from earlier work
# [12] = target: T1, δOR; conditions: cited from earlier work; remark: listed apart in the source
# T2 sequence (P35372 whole entry): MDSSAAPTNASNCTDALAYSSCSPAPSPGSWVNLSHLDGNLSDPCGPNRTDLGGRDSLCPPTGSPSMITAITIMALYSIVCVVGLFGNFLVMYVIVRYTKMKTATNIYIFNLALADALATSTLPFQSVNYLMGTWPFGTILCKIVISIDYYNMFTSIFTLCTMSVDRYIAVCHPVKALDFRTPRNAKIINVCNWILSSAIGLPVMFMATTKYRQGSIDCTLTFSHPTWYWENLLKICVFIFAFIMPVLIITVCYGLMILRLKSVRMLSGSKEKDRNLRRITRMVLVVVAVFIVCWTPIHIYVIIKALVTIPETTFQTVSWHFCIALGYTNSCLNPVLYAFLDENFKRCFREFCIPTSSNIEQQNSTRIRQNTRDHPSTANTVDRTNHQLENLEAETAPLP
# T1 sequence (P41143 whole entry): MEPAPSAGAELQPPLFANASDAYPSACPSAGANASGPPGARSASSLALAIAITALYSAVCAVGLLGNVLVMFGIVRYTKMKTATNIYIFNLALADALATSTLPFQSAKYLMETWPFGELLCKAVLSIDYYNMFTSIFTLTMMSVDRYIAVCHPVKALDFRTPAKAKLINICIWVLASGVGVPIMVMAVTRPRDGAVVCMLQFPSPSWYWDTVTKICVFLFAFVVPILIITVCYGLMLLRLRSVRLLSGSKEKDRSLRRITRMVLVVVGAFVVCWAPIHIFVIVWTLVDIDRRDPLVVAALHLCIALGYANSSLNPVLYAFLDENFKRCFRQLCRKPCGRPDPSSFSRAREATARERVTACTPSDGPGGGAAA
# T3 sequence (P32300 whole entry): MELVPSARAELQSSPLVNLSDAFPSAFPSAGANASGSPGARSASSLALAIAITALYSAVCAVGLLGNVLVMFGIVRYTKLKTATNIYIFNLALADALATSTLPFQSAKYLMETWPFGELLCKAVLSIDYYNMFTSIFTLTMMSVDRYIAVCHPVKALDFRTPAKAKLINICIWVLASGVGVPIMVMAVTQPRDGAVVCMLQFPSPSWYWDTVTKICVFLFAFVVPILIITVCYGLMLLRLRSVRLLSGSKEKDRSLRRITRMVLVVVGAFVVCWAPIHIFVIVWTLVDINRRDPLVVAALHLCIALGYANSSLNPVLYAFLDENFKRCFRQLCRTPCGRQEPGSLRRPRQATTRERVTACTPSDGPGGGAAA
# T4 sequence (P42866 whole entry): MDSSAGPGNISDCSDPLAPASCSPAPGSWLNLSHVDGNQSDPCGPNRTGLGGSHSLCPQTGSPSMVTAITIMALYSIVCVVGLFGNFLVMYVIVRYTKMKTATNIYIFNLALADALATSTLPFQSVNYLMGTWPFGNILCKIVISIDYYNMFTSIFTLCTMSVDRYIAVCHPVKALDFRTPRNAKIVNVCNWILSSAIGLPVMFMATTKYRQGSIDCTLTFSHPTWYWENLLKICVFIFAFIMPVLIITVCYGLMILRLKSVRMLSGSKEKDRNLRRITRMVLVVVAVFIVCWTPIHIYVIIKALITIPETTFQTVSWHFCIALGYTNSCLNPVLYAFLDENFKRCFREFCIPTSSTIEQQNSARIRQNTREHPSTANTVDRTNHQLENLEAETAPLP
compound,measurement,setting,value
CC(C)C[C@H](NC(=O)[C@H](Cc1ccncc1)NC(=O)CNC(=O)CNC(=O)[C@@H](N)Cc1ccc(O)cc1)C(=O)O [Compound 1l] (H-YGG[4Pal]L-OH; N-terminus and C-terminus assumed),Ki,[1],20.4 nM
same,Binding Selectivity (δOR vs µOR),[1]; ratio of Ki values,1.9
same,Ki,[2],38.9 nM
same,EC50,[3],398 nM
same,IC50,"[4]; HEK 293, forskolin 30 µM, read-out: cAMP IC50 (nM) δOR",30.2 nM
same,G Protein Selectivity (δOR vs µOR),[4]; cAMP potency δOR vs µOR,10
same,Degradation Products (First Appearance),"[5]; rat plasma, UPLC-mass spectrometry, time of first appearance in parentheses",(4-pyridyl)Ala-Leu (10 min) Gly-Gly-(4-pyridyl)Ala-Leu (30 min)
same,half-life,"[5]; rat, plasma",1.3 h
same,EC50,[6],37200 nM
same,IC50,[7],302 nM
Dmt-Tic-Gly-NH-Ph,selectivity for δORs over µORs,[8],≤ 10 fold
aza-β-homoleucine-enkephalin,G Protein Selectivity (δOR vs µOR),[9],9.9 [23]
same,Bias Factor µOR (LE = Ref),[10],1.2
same,Bias Factor δOR,"[11]; BRET (β-arrestin 2) and EPAC (cAMP) assays, footnote prints reference 26",5.2
same,Bias Factor δOR,"[11]; BRET (β-arrestin 2) and EPAC (cAMP) assays, footnote prints reference 26, listed as Aza-β-homoleucine",5.2 ^¶
same,β-arrestin 2 efficacy,[12],64%
same,selectivity for δORs over µORs,[8],≤ 10 fold
rubiscolin-6,Bias Factor δOR,[11]; literature value,2.0
same,β-arrestin 2 efficacy,[12],20%
